Eleven compounds from patent US12649745B2, “Amino-pyrimidine cyclo-amides” (Hoffmann-La Roche Inc., priority 2020, dated 2026) can be followed below.

For this assay, the target named is T1, human Autotaxin (ATX) (Homo sapiens, UniProt Q13822).
T1 construct: generate a full length human ENPP2 ORF with or without a 3′-6×His tag; 6xHis (C); made in house; host or cells: FreeStyle 293-F cells (transient transfection), purified from culture supernatant
Kind of assay: Human ATX enzyme inhibition assay (LPC substrate, choline oxidase/HRP/Amplex Red coupled format). The class given is biochemical. The settings on record: recombinant hATX 1 nM, 18:1 LPC 30 μM, fluorescence at 90 mins minus 5 mins. The procedure: Human ATX Enzyme Inhibition Assay
To identify inhibitors of the human Autotaxin (ATX) enzyme an in-vitro biochemical profiling assay has been developed using lysophosphatidylcholine (LPC) as substrate and recombinant enzyme. ATX activity is assayed via a coupled enzyme format where choline produced from LPC hydrolysis is converted to hydrogen peroxide by choline oxidase (CO). Hydrogen peroxide is in turn used as a co-substrate by horseradish peroxidase (HRP) to oxidise Amplex Red® and generate the red-fluorescent product, Resorufin.
50 mM Tris-HCl (pH 8.0); 120 mM NaCl; 20 mM CaCl2; 5 mM KCl; 1 mM MgCl2; 0.01% Triton X-100, sterile-filtered and stored at 4° C.
50 mM Tris-HCl (pH 8.0); 150 mM NaCl
human Autotaxin (hATX): 0.97 mg/ml (9.718 μM) Molecular weight 99817. Working solution of 1.5 μM used in this assay.
100 mM 18:1 LPC dissolved in reagent dilution-buffer.
500 U/ml Choline Oxidase in reagent dilution buffer.
2540 U/ml Horseradish Peroxidase, in reagent dilution buffer (10.95 mg/ml).
20 mM Amplex Red (10-Acetyl-3,7-dihydroxy-phenoxazin) in DMSO.
Black, 384-well plate, black with clear bottom, non-treated surface.
Test compounds are received pre-diluted in DMSO as an 11-point concentration-response (0.5 mM highest concentration; 1 in 3.162 dilution). Test compounds are pre-diluted 1:1 (10 μL compound+10 μL assay buffer) in a 96-well conical bottomed plate prior to use.
ATX is diluted to 2.2 nM in assay buffer. Choline oxidase and horseradish peroxidase are diluted to 7.3 U/ml and 14.7 U/ml, respectively. 18:1 LPC and Amplex Red® are diluted to 110 μM and 183.3 μM, respectively (solution protected from light). 2.2 μL of compound pre-dilution or 50% DMSO is added to the reaction plate followed by 25 μL of ATX or assay buffer (negative control). Assay plate is mixed and incubated at room temperature for 10 mins. 15 μL of choline oxidase/horseradish peroxidase is then added. To initiate the reaction 15 μL of LPC 18:1/Amplex Red is added. Assay plate is mixed and incubated at room temperature in the dark. Fluorescence is measured at 5 mins (for background subtraction) and 90 mins.
Final Assay Concentrations:
Horse Radish Peroxidase: 4 U/ml
Fluorescence at 5-minutes is subtracted from the 90-minute end point data and normalized with respect to the positive control. IC50 values are calculated.
Results in the enzymatic ATX inhibition assay are provided for compounds of formula (I).
With `O=C1c2cnc(NC3Cc4ccc(Cl)cc4C3)nc2CN1C1CC(F)(F)C1` (centres unmarked) [Example 5, 2-((5-chloro-2,3-dihydro-1H-inden-2-yl)amino)-6-(3,3-difluorocyclobutyl)-6,7-dihydro-5H-pyrrolo[3,4-d]pyrimidin-5-one], the IC50 – broadly, the concentration at which inhibition is half-maximal – turned out to be 49 nM.
With `N#Cc1cc(Cl)cc2c1C[C@@H](Nc1ncc3c(n1)CCN(C1COC1)C3=O)C2` [Example 17, (S)-6-chloro-2-((6-(oxetan-3-yl)-5-oxo-5,6,7,8-tetrahydropyrido[4,3-d]pyrimidin-2-yl)amino)-2,3-dihydro-1H-indene-4-carbonitrile] the figure was 3 nM.
With `CC(=O)N1CCC(N2Cc3nc(N[C@H]4Cc5cc(Cl)cc(C#N)c5C4)ncc3C2=O)CC1` [Example 25, (S)-2-((6-(1-acetylpiperidin-4-yl)-5-oxo-6,7-dihydro-5H-pyrrolo[3,4-d]pyrimidin-2-yl)amino)-6-chloro-2,3-dihydro-1H-indene-4-carbonitrile] the figure was 6 nM; with `O=C1c2cnc(NC3Cc4ccc(Cl)cc4C3)nc2CN1C1COC1` (centres unmarked) [Example 1, 2-((5-chloro-2,3-dihydro-1H-inden-2-yl)amino)-6-(oxetan-3-yl)-6,7-dihydro-5H-pyrrolo[3,4-d]pyrimidin-5-one], 150 nM.
On to `N#Cc1cc(Cl)cc2c1C[C@@H](Nc1ncc3c(n1)CCN(CC(F)(F)F)C3=O)C2` [Example 36, (S)-6-chloro-2-((5-oxo-6-(2,2,2-trifluoroethyl)-5,6,7,8-tetrahydropyrido[4,3-d]pyrimidin-2-yl)amino)-2,3-dihydro-1H-indene-4-carbonitrile], for which the IC50 was 3 nM.
As for `CCN1CCc2nc(N[C@H]3Cc4cc(Cl)cc(C#N)c4C3)ncc2C1=O` [Example 34, (S)-6-chloro-2-((6-ethyl-5-oxo-5,6,7,8-tetrahydropyrido[4,3-d]pyrimidin-2-yl)amino)-2,3-dihydro-1H-indene-4-carbonitrile], the figure is 3 nM; as for `N#Cc1cc(Cl)cc2c1C[C@@H](Nc1ncc3c(n1)CCN(CC1CC1)C3=O)C2` [Example 31, (S)-6-chloro-2-((6-(cyclopropylmethyl)-5-oxo-5,6,7,8-tetrahydropyrido[4,3-d]pyrimidin-2-yl)amino)-2,3-dihydro-1H-indene-4-carbonitrile], 2 nM; as for `N#Cc1cc(Cl)cc2c1C[C@@H](Nc1ncc3c(n1)CN(C1CC4(C1)CC(F)(F)C4)C3=O)C2` [Example 7, (S)-6-chloro-2-((6-(6,6-difluorospiro[3.3]heptan-2-yl)-5-oxo-6,7-dihydro-5H-pyrrolo[3,4-d]pyrimidin-2-yl)amino)-2,3-dihydro-1H-indene-4-carbonitrile], 3 nM.
With `N#Cc1cc(Cl)cc2c1C[C@@H](Nc1ncc3c(n1)CCNC3=O)C2` [Example 27, (S)-6-chloro-2-((5-oxo-5,6,7,8-tetrahydropyrido[4,3-d]pyrimidin-2-yl)amino)-2,3-dihydro-1H-indene-4-carbonitrile] the figure was 3 nM.
With `N#Cc1cc(Cl)cc2c1C[C@@H](Nc1ncc3c(n1)CNC3=O)C2` [Example 35, (S)-6-chloro-2-((5-oxo-6,7-dihydro-5H-pyrrolo[3,4-d]pyrimidin-2-yl)amino)-2,3-dihydro-1H-indene-4-carbonitrile] the figure was 2 nM; with `N#Cc1cc(Cl)cc2c1C[C@@H](Nc1ncc3c(n1)CN(C1CCOCC1)C3=O)C2` [Example 9, (S)-6-chloro-2-((5-oxo-6-(tetrahydro-2H-pyran-4-yl)-6,7-dihydro-5H-pyrrolo[3,4-d]pyrimidin-2-yl)amino)-2,3-dihydro-1H-indene-4-carbonitrile], 5 nM.
